The values below come from US5010074A, “Novel benzazepine derivatives” (Novo Nordisk A/S, priority 1988, dated 1991).

For one data set, the target named is T1, dopamine D1 receptor (Rattus norvegicus, UniProt P18901).
T1 construct: homogenates from rat striatum; from tissue; host or cells: rat striatum homogenate
Kind of data set: binding to dopamine D1 receptor in homogenates from rat striatum. From the text: Ki is the affinity of tested compounds for the dopamine D1 receptor.

Data set [1] can be described thus: in vivo. To be noted: mouse, in vivo. From the text:
(§1) Following the method of Pedersen, V. and Christensen, A.V.: "Antagonism of methylphenidate-induced stereotyped gnawing in mice", Acta Pharmacol. et Toxicol. 31: 488-496, 1972, antagonism of dopamine-dependent, methyl-phenidate-induced gnawing behaviour of mice, was used to assess the effects of the present D-1 antagonists. Further, the ratio of ED50 values obtained using i.v. administration and oral administration, respectively, was taken as an index of the bioavailability of the test drugs.

For data set [2], the system named is methyl-phenidate-induced gnawing behaviour of mice. Kind of data set: antagonism of methylphenidate-induced stereotyped gnawing in mice. The following applies: Mus musculus.
Text: as §1

Data set [3] is described as follows: in vivo. Details: species or system mongrel dogs. To be noted: dog, po. The method, then:
As already mentioned, the benzazepines of the general formula given in Table II with X representing halogen have a low oral bioavailability. […] Some test results are stated in the following.
The benzazepines are administered orally to dogs and subsequently samples of their blood plasma are analysed for the compound by a specific HPLC-method. The area under the curve showing the oral plasma concentration versus time is calculated. This area is designated […].
The absolute oral bioavailability, F, is calculated as the ratio between the area representing the oral dose and the area for the intravenous dose according to the formula [formula]

For data set [4] the following is noted: in words; Life Sci. 34 (1984) 1529; cited from earlier work.
The subject of a further data set is D1 dopamine. The following applies: in words; Eur.J.Pharmacol. 91 (1983) 153; cited from earlier work.
[5] abbreviates: Table I, rat striatum homogenates, (+) enantiomere or racemic mixtures, read-out: Ki Dopamine D1 receptor.
The mark [6] stands for this setting: Table II, unit inferred, read-out: Ki.

Where two headings read alike, the source gives them in different places.

T1 sequence (P18901 whole entry): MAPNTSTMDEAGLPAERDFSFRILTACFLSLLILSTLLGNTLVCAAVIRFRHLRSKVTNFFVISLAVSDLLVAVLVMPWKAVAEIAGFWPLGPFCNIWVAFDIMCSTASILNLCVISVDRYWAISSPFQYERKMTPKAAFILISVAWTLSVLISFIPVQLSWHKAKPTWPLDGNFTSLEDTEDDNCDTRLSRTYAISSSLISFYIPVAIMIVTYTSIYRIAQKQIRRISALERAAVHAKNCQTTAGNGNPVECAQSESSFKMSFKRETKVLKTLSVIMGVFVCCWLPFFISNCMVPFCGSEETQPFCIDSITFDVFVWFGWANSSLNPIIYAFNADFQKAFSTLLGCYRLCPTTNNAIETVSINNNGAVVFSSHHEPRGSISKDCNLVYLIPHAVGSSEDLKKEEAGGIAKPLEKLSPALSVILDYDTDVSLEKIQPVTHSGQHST

A word on the Ki: it is the dissociation constant of the complex between target and ligand, obtained from inhibition or displacement. With `CN1CCc2cc([N+](=O)[O-])c(O)cc2[C@@H]2c3ccccc3CC[C@H]21` (relative stereo) [Example 7, trans-[6,7,7a,8,9,13b]-hexahydro-2-hydroxy-7-methyl-3-nitro-5H-benzo[d]naphto[2,1-b]azepine], at dopamine D1 receptor (setting [5]), the Ki came out at 169 nM.

For orientation: ED50 means the dose that gives a 50% effect, or the effect in half of the subjects. In general, bioavailability refers to the share of a dose that reaches the circulation, judged against a reference dose that is usually intravenous. On to `CN1CCc2cc([N+](=O)[O-])c(O)cc2C(c2cccc3c2OCC3)C1` (single isomer, unassigned; (+)) [Example 5, (+)-5-(2,3-dihydrobenzofuran-7-yl)-7-hydroxy-3-methyl-8-nitro-2,3,4,5-tetrahydro-1H-3-benzazepine], for which the inhibition constant Ki at dopamine D1 receptor (setting [5]) is 11 nM; at dopamine D1 receptor (setting [6]) it was 4.6 nM. For the same compound, in “in vivo [1]”, the selectivity ratio amounted to 17.3. The ED50 was 0.11 mg/kg in data set [2] (iv, read-out: ED50 i.v.) and 1.9 mg/kg in data set [2] (po, read-out: ED50 p.o.). The same compound yielded a bioavailability in “in vivo [3]” of 65%.

Take `CN1CCc2cc(Cl)c(O)cc2C(c2cccc3c2OCC3)C1` (stereo not shown) [8-chloro-7-hydroxy-3-methyl-5-(2,3-dihydrobenzofuran-7-yl)-2,3,4,5-tetrahydro-1H-3-benzazepine, reference compound]: at dopamine D1 receptor (setting [6]), the Ki is 0.2 nM. Besides, in the data set “in vivo [1]”, the selectivity ratio is 75. Besides, the ED50 in data set [2] (iv, read-out: ED50 i.v.) was determined as 0.06 mg/kg; in data set [2] (po, read-out: ED50 p.o.), 4.5 mg/kg. The compound also had a bioavailability in “in vivo [3]” of 5.5%.

On to `CN1CCc2cc([N+](=O)[O-])c(O)cc2C(c2ccccc2F)C1` (stereo not shown) [Example 1, 5-(2-fluorophenyl)-7-hydroxy-3-methyl-8-nitro-2,3,4,5-tetrahydro-1H-3-benzazepine], for which the Ki on dopamine D1 receptor (setting [5]) was 42 nM.

With `Cc1ccccc1C1CN(C)CCc2cc([N+](=O)[O-])c(O)cc21` (stereo not shown) [Example 3, 7-hydroxy-3-methyl-8-nitro-5(2-methyl-phenyl)-2,3,4 5-tetrahydro-1H-3-benzazepine], the inhibition constant (Ki) at dopamine D1 receptor (setting [5]) was 28 nM.

With `CN1CCc2cc([N+](=O)[O-])c(O)cc2[C@@H](c2ccccc2)C1` [Example 4, (R)-7-hydroxy-3-methyl-8-nitro-5-phenyl-2,3,4,5-tetrahydro-1H-3-benzazepine], the inhibitory constant (Ki) on dopamine D1 receptor (setting [5]) and at dopamine D1 receptor (setting [6]) was 13 nM in each case. In addition, the selectivity ratio in the data set “in vivo [1]” turned out to be 2.2. Also, the ED50 is 5.4 mg/kg in data set [2] (iv, read-out: ED50 i.v.) and 11.9 mg/kg in data set [2] (po, read-out: ED50 p.o.).

Consider `CN1CCc2cc([N+](=O)[O-])c(O)cc2C(c2ccc3c(c2)CCC3)C1` (stereo not shown) [Example 6, 7-hydroxy-5-(5-indanyl)-3-methyl-8-nitro-2,3,4,5-tetrahydro-1H-3-benzazepine], for which, at dopamine D1 receptor (setting [5]), the Ki is 88 nM.

As for `CN1CCc2cc(Cl)c(O)cc2[C@@H](c2ccccc2)C1` [SCH 23390, (R)-8-chloro-7-hydroxy-2,3,4,5-tetrahydro-3-methyl-5-phenyl-1H-3-benzazepine], the 50% effective dose (ED50) in data set [2] (iv, read-out: ED50 i.v.) is 0.017 mg/kg. In addition, the 50% effective dose (ED50) in data set [2] (po, read-out: ED50 p.o.) amounted to 6.5 mg/kg. Besides, in data set [4], the “bioavailability after oral administration” value is given as “poor bioavailability after oral administration” and the duration of action result is reported as “short duration of action”. Moreover, the D1 dopamine antagonism result in the data set on D1 dopamine is “selective D1 dopamine antagonist”.
